According to patent US20160089464A1, “MALODOR REDUCTION COMPOSITIONS” (The Procter & Gamble Company, priority 2014, published 2016):

assay: Comment Code material properties: vapor pressure, ClogP, probability of ingredient color instability, odor detection threshold, melamine formaldehyde PMC headspace response ratio and leakage, liquid dish neat product liquid-air partition coefficient; format: physicochemical; settings: Table 1 materials; each letter of the code is one property class (vapor pressure, ClogP, color instability, odor detection threshold, PMC headspace ratio, PMC leakage, liquid dish liquid-air partition coefficient)

Structure (SMILES) | Comment Code
C=C(C)C1CC=C(CO)CC1 (stereo not drawn) [Material 948] | CHIJK
CC(C)OCCc1ccccc1 [Material 950] | ACEFHJKL
CCCCCC=CC=CC(=O)OCC [Material 951] | BDEFHJK
c1ccc(CCOC2CCCCC2)cc1 [Material 953] | DEFHJK
CCC(C)C(=O)OCCc1ccccc1 (stereo not drawn) [Material 954] | DEFHJK
OCCc1ccccc1 [Material 955] | BCEFGIK
O=C(Cc1ccccc1)OCCc1ccccc1 [Material 959] | DHJ
O=C(Oc1ccccc1)c1ccccc1 [Material 965] | DFHJK
O=C(OCCc1ccccc1)c1ccccc1 [Material 967] | DHJ
CC1(C)C2CC=C(CC=O)C1C2 (stereo not drawn) [Material 973] | ACFHIJKL
C=C1C(O)CC2CC1C2(C)C (stereo not drawn) [Material 974] | BCEFGIJKL
CC(=O)CCc1ccc2c(c1)OCO2 [Material 976] | CEFGJ
CC(C)(C)C(=O)OC1CC2CC1C1CC=CC21 (stereo not drawn) [Material 978] | DEFHJK
CC1C[C@H]2C3CCC(C3)[C@H]2CC1=O (stereo partly drawn) [Material 980] | CEFGJKL
CC(C)C1=CCC(C)(O)CC1 (stereo not drawn) [Material 982] | BCGIJK
CC1=CCC(/C=C/C(C)(C)C(C)O)C1(C)C (stereo not drawn) [Material 985] | DHJK
CC(C)=CCCC1=CCC(C)(C=O)CC1 (stereo not drawn) [Material 988] | DFHJK
CC(O)CO (stereo not drawn) [Material 993] | ACEFGIKL
Cc1ccc(OC(=O)Cc2ccccc2)cc1 [Material 998] | DFHJ
CCC=CCC=CC=CC(=O)OCC [Material 1000] | BDEFHJK
CC1CC(C)(C)OC(Cc2ccccc2)O1 (stereo not drawn) [Material 1003] | DEFHJK
CC1CC(C)(c2ccccc2)CO1 (stereo not drawn) [Material 1006] | BDEFHJK
CC1=CC[C@@H]2C3CC([C@@H]2C1)[C@@]1(C3)OC1C (stereo partly drawn) [Material 1007] | DEFHJK
C/C=C1/CC2CC1C1CCCOC21 (stereo not drawn) [Material 1008] | BCEFHJKL

Structure (SMILES) | Comment Code
CCC(=O)OCC(=O)OC(C)C1CCCC(C)(C)C1 (stereo not drawn) [Material 1009] | DFHJ
C=C1CCCC(C)(C)C1C(=O)OC (stereo not drawn) [Material 1010] | ADHIJKL
CC(CO)CCCc1ccccc1 (stereo not drawn) [Material 1012] | DEFHJK
CC1=CCOC(c2ccccc2)C1 (stereo not drawn) [Material 1016] | BCEFGJK
C=C1C(O)CC2(C(C)C)CC12 (stereo not drawn) [Material 1020] | BCEFHIJKL
C=CCc1ccc2c(c1)OCO2 [Material 1021] | BCEFHK
CC1=CC(C)C2(CCCC(C)(C)C2=O)CC1 (stereo not drawn) [Material 1022] | DHIJK
CC1=CCC(CCC(C)C(C)O)C1(C)C (stereo not drawn) [Material 1023] | DEFHJK
CC/C(=C/CC1CC=C(C)C1(C)C)CO (stereo not drawn) [Material 1024] | DEFHJK
CC(=CCC1CC=C(C)C1(C)C)CO (stereo not drawn) [Material 1025] | CHJK
COC1CC2CC1C1CC(C=O)CC21 (stereo not drawn) [Material 1026] | CHJK
C=C[C@](C)(O)CC[C@@H]1[C@@]2(C)CCCC(C)(C)[C@@H]2CC[C@@]1(C)O [Material 1028] | DEFHJ
CC1=CC[C@@H]2[C@@]3(C)CCCC(C)(C)[C@@H]3CC[C@@]2(C)O1 [Material 1029] | DEFHJK
CC1=CCCC2(C)CCC(=C(C)C)CC12 (stereo not drawn) [Material 1031] | DEFHJKL
CC(OC(C)(C)COC(=O)C1CC1)C1CCCC(C)(C)C1 (stereo not drawn) [Material 1032] | DEFHJ
CC(C)Cc1ccc(CC(C)C=O)cc1 (stereo not drawn) [Material 1033] | DHJK
C=C1CC[C@@H]2[C@H]([C@H]3[C@H]1CC[C@]3(C)O)C2(C)C [Material 1035] | DEFHJK
CC1CCC2C(C2(C)C)C12COC(C)(C)OC2 (stereo not drawn) [Material 1036] | BCEFHJK
C=CCCC(=O)C1=CCCC2(CCCC2)C1 [Material 1038] | DGJK
Cc1ncsc1CCO [Material 1042] | CGIKL
CCCCC(CC)C1OCCO1 (stereo not drawn) [Material 1043] | ACEFHIJKL
CCCCCCC/C=C\CCC=O [Material 1045] | BDFHJK
CC1=CC2C(C(C)C)CCC(C)(O)C2CC1 (stereo not drawn) [Material 1046] | DEFHJK
CC1=CC2C(C(C)C)CCC(C)(O)C2CC1 (stereo not drawn) [Material 1047] | DEFHJK

Structure (SMILES) | Comment Code
CCCCCC1C(=O)CCC1C (stereo not drawn) [Material 1053] | BDFHIJKL
CC1=CCCC(C)(C)C12CCC(C)O2 (stereo not drawn) [Material 1057] | BDFHIJKL
CC1CCC(C(C)(C)S)C(=O)C1 (stereo not drawn) [Material 1059] | BDEFHIJKL
CC1=CCC2(C)CCCC(C)(C)C23CC13 (stereo not drawn) [Material 1060] | BDEFGJKL
COc1cc(C)ccc1C(C)C [Material 1062] | ADHIJKL
CCCC(O)CCC1C(C)CCCC1(C)C (stereo not drawn) [Material 1063] | DEFHJK
CCCC/C=C/C=C/C=O [Material 1064] | ACHKL
CC(C)=CCC/C(C)=C/CC/C(C)=C/CO [Material 1065] | DEFHJK
CC/C=C\CC/C=C/C=O [Material 1066] | ACHKL
CCCCCCC/C=C/C=O [Material 1067] | ADHKL
CCCCCC/C=C/C=O [Material 1070] | ADHKL
CC/C=C\C/C=C/CCO [Material 1072] | ACEFHK
CCCCC/C=C/CCC=O [Material 1073] | ADHKL
C=C/C(C)=C/CC=C(C)C [Material 1077] | ADGIKL
CC(C)=CCC/C(C)=C/CO [Material 1082] | BCHIK
CCCCCC1C(=O)CCC1CC(=O)OC (stereo not drawn) [Material 1083] | DFHJK
CC(C)(C)c1ccc2c(c1)OCC(=O)CO2 [Material 1085] | CEFHJ
CCCCCCCCCCCCCO [Material 1090] | DEFGJK
CCOC(=O)CC(O)(CC(=O)OCC)C(=O)OCC [Material 1091] | CEFGJ
COC(=O)c1ccccc1NC(O)CC(C)c1ccccc1 (stereo not drawn) [Material 1093] | DFHJ
CC(=O)C1CC/C(C)=C\CC/C(C)=C\C/C=C/1C (stereo not drawn) [Material 1095] | DHJK
CC1CC2CCC3C(C2O1)C(C)(C)C(C)C3(C)C (stereo not drawn) [Material 1097] | BDEFHJK
CC1CC=CCCCCCCCC(=O)OCC1 (stereo not drawn) [Material 1099] | DEFHJK

same assay, conditions: cell strings several class symbols together; each letter is one property class of L1

Structure (SMILES) | Comment Code
O=COCCc1ccccc1 [Material 956] | ACEFHK
CC(C)C(=O)OCCc1ccccc1 [Material 958] | DHJK
C/C=C(\C)C(=O)OCCc1ccccc1 [Material 960] | DHJK
C=C(C)C(=O)OCCc1ccccc1 [Material 971] | DHJK
CC(C)c1ccc(CC=O)cc1 [Material 977] | BDFHK
CC(C)(C)C(=O)OC1CC2CC1C1CC=CC21 (stereo not drawn) [Material 978] | DEFHJK
C=C(C)C1CCC(C)(O)C1C (stereo not drawn) [Material 981] | BCEFGIJKL
COc1ccc(CC(C)=O)cc1 [Material 983] | BCEFHK
C/C=C\C(=O)/C(C)=C(/C)C(C)C [Material 986] | ADHIJKL
CCCc1ccc(OC)cc1 [Material 987] | ADEFHKL
CC(C)(C)c1ccc(CC=O)cc1 [Material 994] | BDHJK
CCC(C)(C)C1CCC(O)CC1 (stereo not drawn) [Material 995] | BDEFHIJK
CC1=CCC2CC1C2(C)C (stereo not drawn) [Material 1001] | ADEFGIJKL
CC(=O)CCc1ccc(O)cc1 [Material 1002] | CEFGIK
C=C(C)CCC[C@H](C)CCO [Material 1004] | BCHIJKL
CCOC(=O)OC1C(C)CCC(C)C1C (stereo not drawn) [Material 1005] | BDEFHJKL
CC1=CC[C@@H]2C3CC([C@@H]2C1)[C@@]1(C3)OC1C (stereo partly drawn) [Material 1007] | DEFHJK
CC(=O)OC(C)C1CCCC(C)(C)C1 (stereo not drawn) [Material 1011] | ADHIJKL
C=C[C@@](C)(O)CCC=C(C)C [Material 1017] | BCEFGIJK
C=C1CCC2(C(C)C)CC12 (stereo not drawn) [Material 1018] | ADEFGIJKL
CC(C)C12CCC(C)(O)C1C2 (stereo not drawn) [Material 1019] | ADEFGIJKL
CC1=CC(C)C2(CCCC(C)(C)C2=O)CC1 (stereo not drawn) [Material 1022] | DHIJK
CC/C(=C/CC1CC=C(C)C1(C)C)CO (stereo not drawn) [Material 1024] | DEFHJK

Structure (SMILES) | Comment Code
COC1CC2CC1C1CC(C=O)CC21 (stereo not drawn) [Material 1027] | CHJK
C=C[C@](C)(O)CC[C@@H]1[C@@]2(C)CCCC(C)(C)[C@@H]2CC[C@@]1(C)O [Material 1028] | DEFHJ
CC1=CC[C@@H]2[C@@]3(C)CCCC(C)(C)[C@@H]3CC[C@@]2(C)O1 [Material 1029] | DEFHJK
CCCOC(=O)[C@H](C)OC(C)(C)CC [Material 1030] | BDEFHJK
C=C1CC[C@@H]2[C@H]([C@H]3[C@H]1CC[C@]3(C)O)C2(C)C [Material 1035] | DEFHJK
C=CCCC(=O)C1=CCCC2(CCCC2)C1 [Material 1038] | DGJK
O=C1CCC2(CCCCC2)O1 [Material 1039] | BCGIKL
CC/C(CC(C)CC)=N/O (stereo not drawn) [Material 1040] | BCEFGIJKL
CC(=O)OC(C)c1ccccc1 (stereo not drawn) [Material 1041] | ACEFHIK
CC(C)CCCC(C)CC=O (stereo not drawn) [Material 1051] | ADGIJKL
CC(O)CCC1C(C)CCCC1(C)C (stereo not drawn) [Material 1052] | BDEFHIJK
CCC(C)(O)CCCC(C)C (stereo not drawn) [Material 1054] | BDEFGIJKL
CCC(C)(CCCC(C)C)OC(C)=O (stereo not drawn) [Material 1055] | ADEFHJKL
CCOC(=O)[C@@H]1[C@@H](C)CCCC1(C)C [Material 1058] | ADEFHIJKL
CC1=CCC2(C)CCCC(C)(C)C23CC13 (stereo not drawn) [Material 1060] | BDEFGJKL
CCC/C=C/CO [Material 1069] | ACEFHIKL
CC(C)(C)[C@@H]1CCCC[C@H]1O [Material 1071] | ACGIJKL
CC=CC(=O)C1C(C)=CCCC1(C)C (stereo not drawn) [Material 1074] | BDHIJK
C=C(C)[C@@H]1CC[C@@H](C)C(=O)C1 [Material 1081] | ACGIJKL
C/C=C/c1ccc(O)c(OC)c1 [Material 1084] | CEFHIK
CC(=O)OC(c1ccccc1)C(Cl)(Cl)Cl (stereo not drawn) [Material 1088] | BDEFGJ
CC1CC2CCC3C(C2O1)C(C)(C)C(C)C3(C)C (stereo not drawn) [Material 1097] | DEFHJK
CCCC(C)(S)CO (stereo not drawn) [Material 1098] | ACEFHIJKL
